Active and inactive are the calls of the source.
Key:
fMet-Leu-Phe receptor = fMet-Leu-Phe receptor (Homo sapiens, UniProt P21462); test: FPR ligands, dose response (AID 519); assay type: functional
[1] = MC4R antagonists, dose response, counter-screen for LGR2 antagonist project, cell-based, plate reader, cherry pick (AID 743444); assay type: functional;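 also: transfected HEK 293 cells stimulated with alpha-MSH peptide; potency of inhibitors of the alpha-MSH evoked signal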
cells [2] = test: cells
[3] = HepG2 cell cytotoxicity, dose response, cytotoxicity control, plate reader, cherry-pick, antagonist series (AID 743416); assay type: functional, cell-based
[4] = molecular target: T1, Oxysterols receptor LXR-beta (Homo sapiens, UniProt P55055); assay type: functional, cell-based;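 also: Cell-based luminescence dose-response assay of agonist activity at LXR, run as a confirmatory counterscreen to a daf-12 agonist screen; HEK293 cells with Gal4-LXR fusion and GAL4-driven luciferase reporter; agonist potency from rising luciferase signal of a Gal4-LXR reporter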
T1 sequence (P55055 whole entry): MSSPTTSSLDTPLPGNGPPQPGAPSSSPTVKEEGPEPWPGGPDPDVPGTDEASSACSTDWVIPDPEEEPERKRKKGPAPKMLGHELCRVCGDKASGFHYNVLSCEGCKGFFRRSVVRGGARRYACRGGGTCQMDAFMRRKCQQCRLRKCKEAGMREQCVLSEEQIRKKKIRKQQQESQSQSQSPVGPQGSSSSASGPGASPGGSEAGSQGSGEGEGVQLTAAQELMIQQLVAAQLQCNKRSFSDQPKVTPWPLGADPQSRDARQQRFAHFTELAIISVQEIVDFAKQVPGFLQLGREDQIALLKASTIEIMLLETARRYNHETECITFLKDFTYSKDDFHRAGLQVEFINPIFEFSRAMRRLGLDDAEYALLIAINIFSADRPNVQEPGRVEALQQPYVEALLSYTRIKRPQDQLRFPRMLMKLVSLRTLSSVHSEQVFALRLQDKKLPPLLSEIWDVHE

[5] = LGR2 antagonists, dose response, cell-based, HEK293, CRE-luciferase reporter, cherry pick, set 2 (AID 743343); assay type: functional;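 also: transfected cells were stimulated with diluted bursicon conditioned medium after compound addition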
[6] = A549 cell cytotoxicity, dose response, cytotoxicity control, plate reader, cherry-pick, antagonist series (AID 743412); assay type: functional, cell-based
[7] = HEK293 cell cytotoxicity, dose response, cytotoxicity control, plate reader, cherry-picked samples (AID 743446); assay type: functional, cell-based
cells [8] = test: cells; remark: listed apart in the source
Major prion protein = Major prion protein (Homo sapiens, UniProt P04156); assay type: functional, cell-based
Albumin = Albumin (Bos taurus, UniProt P02769); test: Counterscreen for inhibitors of T-cell receptor (TCR)-CD3 interaction: Fluorescence-based biochemical high throughput dose response assay to identify inhibitors of T-cell receptor (TCR)-CD3 interaction using a TAMRA-labeled BSA probe.; assay type: functional
[9] = cytotoxicity in KRAS-transformed pancreatic duct cells, primary screen, cell-based, fluorescence, HTS (AID 431); assay type: functional; details: Homo sapiens;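 also: cell line used: HPDE-C7K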
[10] = cytotoxicity in HPDE-C7 cells, cell-based, fluorescence, HTS (AID 430); assay type: functional; details: Homo sapiens
Streptococcus = test: Group A Streptococcus viability loss, dose response, counter-screen for streptokinase expression inhibitor project, luminescence, BacTiterGlo (AID 1915); assay type: functional, organism-based;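 also: potency for reduction of bacterial viability or growth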
[11] = test system: Streptococcus sp. 'group A'; test: growth inhibition of control SK(-) GAS strain, dose response, counter-screen for streptokinase expression inhibitor project, luminescence, kanamycin, BacTiterGlo, confirmation (AID 1900); assay type: functional, organism-based
Streptokinase A = molecular target: T2, Streptokinase A (Streptococcus pyogenes serotype M1, UniProt P10520); test: S. pyogenes streptokinase expression inhibitors, potency, dose response, plasminogen activation absorbance, OD405 (AID 1914); assay type: functional, Streptococcus pyogenes M1 GAS;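 also: secreted streptokinase activity via plasminogen activation per viability signal from cell pellet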
T2 sequence (P10520 whole entry): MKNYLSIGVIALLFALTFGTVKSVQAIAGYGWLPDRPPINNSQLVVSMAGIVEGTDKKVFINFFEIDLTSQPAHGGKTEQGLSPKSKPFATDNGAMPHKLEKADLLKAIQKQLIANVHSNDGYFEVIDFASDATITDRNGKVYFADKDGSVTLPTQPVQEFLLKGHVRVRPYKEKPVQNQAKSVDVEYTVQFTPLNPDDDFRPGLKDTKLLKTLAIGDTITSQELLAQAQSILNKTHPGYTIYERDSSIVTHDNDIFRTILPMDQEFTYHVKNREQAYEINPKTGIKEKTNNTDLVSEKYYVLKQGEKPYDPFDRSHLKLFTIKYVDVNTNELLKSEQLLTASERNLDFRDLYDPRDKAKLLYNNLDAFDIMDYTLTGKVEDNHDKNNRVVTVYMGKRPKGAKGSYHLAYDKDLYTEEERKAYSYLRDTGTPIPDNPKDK

Aminopeptidase N = molecular target: T3, Aminopeptidase N (Plasmodium falciparum FcB1/Columbia, UniProt O96935); test: P. falciparum M1AAP inhibitors, biochemical, fluorogenic H-Leu-NHMec substrate, 1536-well (AID 1445); parameters: species or system Plasmodium falciparum 3D7, 3D7
T3 sequence (O96935 whole entry): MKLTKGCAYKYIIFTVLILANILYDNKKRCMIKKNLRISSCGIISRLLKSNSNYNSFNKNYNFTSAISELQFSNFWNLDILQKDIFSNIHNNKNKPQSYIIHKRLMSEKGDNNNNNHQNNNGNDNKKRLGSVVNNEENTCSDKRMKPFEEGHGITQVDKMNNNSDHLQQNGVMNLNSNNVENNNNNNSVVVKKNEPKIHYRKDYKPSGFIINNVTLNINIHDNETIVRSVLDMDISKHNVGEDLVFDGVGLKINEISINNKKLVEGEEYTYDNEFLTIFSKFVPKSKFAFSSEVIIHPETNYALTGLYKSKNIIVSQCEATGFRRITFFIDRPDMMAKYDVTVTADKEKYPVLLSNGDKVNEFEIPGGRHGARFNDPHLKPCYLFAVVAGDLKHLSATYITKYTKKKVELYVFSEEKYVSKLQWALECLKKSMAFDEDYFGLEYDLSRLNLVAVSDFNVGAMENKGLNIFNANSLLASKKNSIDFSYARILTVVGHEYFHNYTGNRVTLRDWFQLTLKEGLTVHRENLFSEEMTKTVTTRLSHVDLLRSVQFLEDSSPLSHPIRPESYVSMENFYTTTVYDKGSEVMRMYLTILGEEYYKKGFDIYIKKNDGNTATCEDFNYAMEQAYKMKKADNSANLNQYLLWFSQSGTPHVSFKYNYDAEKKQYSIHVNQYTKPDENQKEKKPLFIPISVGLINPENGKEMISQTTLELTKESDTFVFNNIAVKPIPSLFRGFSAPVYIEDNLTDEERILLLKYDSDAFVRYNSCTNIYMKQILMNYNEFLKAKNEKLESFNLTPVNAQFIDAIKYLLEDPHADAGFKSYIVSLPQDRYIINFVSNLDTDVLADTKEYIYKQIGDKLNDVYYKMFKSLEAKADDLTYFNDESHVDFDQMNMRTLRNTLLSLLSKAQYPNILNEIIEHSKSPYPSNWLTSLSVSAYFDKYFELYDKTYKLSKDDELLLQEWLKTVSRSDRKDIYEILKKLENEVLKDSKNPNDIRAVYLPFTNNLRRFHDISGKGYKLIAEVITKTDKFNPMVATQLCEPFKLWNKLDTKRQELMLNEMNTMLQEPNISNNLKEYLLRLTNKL

cells [12] = assay type: functional, cell-based
[13] = molecular target: T4, Trace amine-associated receptor 1 (Homo sapiens, UniProt Q96RJ0); test: Counterscreen for agonists of the human trace amine associated receptor 1 (hTAAR1): Fluorescence-based cell-based high throughput dose response assay to identify hTAAR1 agonist that also desensitize TAAR1 receptor response.; assay type: functional
T4 sequence (Q96RJ0 whole entry): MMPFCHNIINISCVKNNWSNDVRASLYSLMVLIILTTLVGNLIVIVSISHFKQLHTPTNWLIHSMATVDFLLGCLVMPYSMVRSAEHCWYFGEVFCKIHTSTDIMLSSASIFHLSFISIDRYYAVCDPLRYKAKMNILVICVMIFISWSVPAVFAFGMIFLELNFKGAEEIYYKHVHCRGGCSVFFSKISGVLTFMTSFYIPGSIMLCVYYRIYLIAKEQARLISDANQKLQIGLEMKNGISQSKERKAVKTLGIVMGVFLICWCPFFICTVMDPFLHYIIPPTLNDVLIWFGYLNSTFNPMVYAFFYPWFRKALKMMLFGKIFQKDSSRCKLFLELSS

Cytochrome P450 2C19 = Cytochrome P450 2C19 (Homo sapiens, UniProt P33261); test: Cytochrome panel assay with activity outcomes. Panel member name: p450-cyp2c19 Compounds with AC50 equal or less than 10 uM are considered active; assay type: functional; details: read-out: AC50
[14] = molecular target: T4, Trace amine-associated receptor 1; test: Fluorescence-based cell-based high throughput dose response assay to identify agonists of the human trace amine associated receptor 1 (TAAR1).; assay type: functional
Cytochrome P450 2C9 = Cytochrome P450 2C9 (Homo sapiens, UniProt P11712)
cells [15] = assay type: functional, cell-based; remark: listed apart in the source
[16] = A375 melanoma cell viability loss, dose response, counter-screen for MITF inhibitor project, CellTiter-Glo luminescence, dry powder, set 4 (AID 624364); assay type: functional, cell-based; details: A-375;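 also: A375 melanoma cells are MITF independent so this is a counter screen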
[17] = A375 melanoma cell cytotoxicity, dose response, counter-screen for MITF inhibitor project, CellTiter-Glo luminescence, dry powder, set 2 (AID 624489); assay type: functional, cell-based; details: A-375;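 also: actives are compounds lowering A375 viability meaning general cytotoxicity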
[18] = molecular target: Induced myeloid leukemia cell differentiation protein Mcl-1 (Homo sapiens, UniProt Q07820); assay type: functional
[19] = cytotoxicity toward NIH3T3 fibroblasts, dose response, counter-screen, cell-based, ATP luminescence, mouse fibroblasts (AID 2010); assay type: functional;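 also: cells exposed to compound for about 90 hours before reading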
[20] = inhibitors of intracellular T. cruzi replication, confirmation, NIH3T3 host cells, beta-gal luminescence (AID 2044); assay type: functional, cell-based;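 also: intracellular parasites grown in NIH/3T3 mouse fibroblasts as host cells; luminescent beta-galactosidase reporter signal from transgenic T. cruzi replicating inside host cells; inhibitors lower the luminescence signal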

## CCCC(=O)Nc1c2c(nn1-c1ccc(OC)cc1)C[S+]([O-])C2 (centres undefined)
fMet-Leu-Phe receptor
  Ki: > 66.7 µM (inactive)

## COc1ccc(C(=O)Nc2nnc(-c3cccs3)s2)cc1
[1]
  AC50: 3.17 µM (active)
Cells [2]
  EC50: > 67.5 µM (inactive)
[3]
  AC50: 45.2 µM (active)
[4]
  EC50: > 67.5 µM (inactive)
[5]
  AC50: 5.12 µM (active)
[6]
  AC50: 44.5 µM (active)
[7]
  AC50: > 52 µM (inactive)

## Cc1cc(NC(=O)CSc2nc(CCC3CCCC3)nc3ccccc23)no1
Cells [8]
  IC50: > 138 µM (inactive)
Major prion protein
  IC50: 9.42 µM (active)

## O=C(Cc1ccccc1)NNC(=S)NC(=O)c1cccnc1
Albumin
  IC50: > 94.1 µM (inactive)

## CCCCCNC(=O)c1ccc2c(=O)[nH]c3c(C(=O)NCC4CCCO4)sc(=S)n3c2c1 (centres undefined)
[9]
  EC50: > 20 µM (not active)
[10]
  EC50: 17.6 µM (active)
Streptococcus
  EC50: > 150 µM (not active)
fMet-Leu-Phe receptor
  Ki: 40.7 µM (inactive)
[11]
  EC50: 0.944 µM (active)
Streptokinase A
  EC50: 21.1 µM (inconclusive)
Aminopeptidase N
  IC50: 37 µM (active)

## CCc1nc(SCC(=O)NNC(=O)C(C)C)c2ccccc2n1
Cells [8]
  IC50: > 138 µM (inactive)
Major prion protein
  IC50: 1.93 µM (active)

## CC1CN(C(NC(=O)C(C)(C)C)C(Cl)(Cl)Cl)CC(C)O1 (centres undefined)
Cells [12]
  EC50: > 29.9 µM (inactive)
[13]
  IC50: 21.6 µM (inactive)
Cytochrome P450 2C19
  AC50: 8.91 µM (inconclusive)
[14]
  EC50: 3.82 µM (active)
Cytochrome P450 2C9
  AC50: 14.1 µM (inconclusive)
Cells [15]
  IC50: > 29.9 µM (inactive)

## O=C(NC1=C(c2ccccc2)C(=O)c2ccccc2C1=O)c1ccco1
[16]
  AC50: 21.3 µM (active)
[17]
  AC50: 14.2 µM (active)

## O=C(NC1=C(c2ccccc2)C(=O)c2ccccc2C1=O)c1ccc(Br)cc1
[16]
  AC50: 45.8 µM (active)
[17]
  AC50: 22.9 µM (active)

## CCc1nnc(S)n1/N=C/c1cc(OC)cc([N+](=O)[O-])c1O
Albumin
  IC50: > 94.1 µM (inactive)
[18]
  IC50: 12.4 µM (active)
[19]
  EC50: > 60 µM (not active)
[20]
  EC50: 0.815 µM (active)
